Data reported in patent US8012987B2, “Indolo[2,1-b] quinazole-6,12-dione antimalarial compounds and methods of treating malaria therewith” (The United States of America as represented by the …, priority 1998, dated 2011).
Converted amounts (≈) assume the structure as drawn. Like-named read-outs stand apart in the source and are kept apart here.

Legend:
[1] = tested on: Plasmodium falciparum clone CDC Sierra Leone I (D-6); assay: In vitro inhibition of [3H]hypoxanthine uptake, P. falciparum D-6 clone; type: cell-based; conditions: Plasmodium falciparum, read-out: IC50 (D-6)
Protocol: (§1) The in vitro assays were conducted by using a modification of the semiautomated microdilution technique of Desjardins et al.^11 and Chulay et al.^12 Two strains of Plasmodium falciparum clones, from CDC Indochina III (W-2), CDC Sierra Leone I (D-6). […] These solutions were subsequently serially diluted 2-fold with a Biomek 1000® (Beckman, Fullerton, Calif.) over 11 different concentrations. The parasites were exposed to serial dilutions of each compound for 48 h and incubated at 37° C. with 5% O2, 5% CO2, and 90% N2 prior to the addition of [^3H]hypoxanthine. […] Uptake of [^3H]hypoxanthine was measured with a Packard Topcount scintillation counter. […] The values without parentheses indicate culture in blood serum which more closely resemble conditions in a living animal.
(§2) The numbers associated with both W2 and D6 refer to IC50 values and the units are ng/ml.

[2] = tested on: Plasmodium falciparum clone CDC Indochina III (W-2); assay: In vitro inhibition of [3H]hypoxanthine uptake, P. falciparum W-2 clone; type: cell-based; conditions: Plasmodium falciparum, read-out: IC50 (W-2)
Protocol: as §1, §2

[3] = values in parentheses: culture medium with 10% Albumax I

SMILES	IC50 [1, 3]	IC50 [2, 3]	IC50 [1]	IC50 [2]
O=C1c2ccccc2-n2c1nc1ccccc1c2=O [Example 1]	0.069 µg/mL (≈ 0.278 µM)	0.069 µg/mL (≈ 0.278 µM)	–	–
O=c1c2ccccc2nc2sc3ccccc3n12 [Example 2]	12.5 µg/mL (≈ 49.5 µM)	15.6 µg/mL (≈ 61.9 µM)	–	–
O=c1c2ccccc2nc2oc3ccccc3n12 [Example 3]	> 50 µg/mL	> 50 µg/mL	–	–
Cc1ccc2nc3n(c(=O)c2c1)-c1ccccc1C3=O [Example 5]	0.313 µg/mL (≈ 1.19 µM)	0.264 µg/mL (≈ 1.01 µM)	–	–
Cc1cccc2c(=O)n3c(nc12)C(=O)c1ccccc1-3 [Example 6]	0.527 µg/mL (≈ 2.01 µM)	0.503 µg/mL (≈ 1.92 µM)	–	–
O=C1c2ccccc2-n2c1nc1ccc(Br)cc1c2=O [Example 7]	0.577 µg/mL (≈ 1.76 µM)	0.513 µg/mL (≈ 1.57 µM)	–	–
Nc1ccc2nc3n(c(=O)c2c1)-c1ccc(F)cc1C3=O [Example 8]	0.062 µg/mL (≈ 0.22 µM)	0.062 µg/mL (≈ 0.22 µM)	–	–
O=C1c2c(Cl)cccc2-n2c1nc1ccccc1c2=O [Example 9]	0.471 µg/mL (≈ 1.67 µM)	0.403 µg/mL (≈ 1.43 µM)	–	–
Cc1cc(C)c2nc3n(c(=O)c2c1)-c1ccc(F)cc1C3=O [Example 10]	0.138 µg/mL (≈ 0.469 µM)	0.131 µg/mL (≈ 0.445 µM)	–	–
Cc1cccc2c(=O)n3c(nc12)C(=O)c1cc(F)ccc1-3 [Example 14]	0.0102 µg/mL (≈ 0.0363 µM)	0.00576 µg/mL (≈ 0.0206 µM)	–	–
CN1CCN(c2ccc3c(=O)n4c(nc3c2)C(=O)c2cc(F)ccc2-4)CC1 [Example 15]	0.126 µg/mL (≈ 0.345 µM)	0.082 µg/mL (≈ 0.225 µM)	–	–
CN1CCN(c2ccc3c(c2)-n2c(nc4ccccc4c2=O)C3=O)CC1 [Example 16]	2.16 µg/mL (≈ 6.24 µM)	1.01 µg/mL (≈ 2.93 µM)	–	–
CN1CCN(c2cc3c(cc2F)C(=O)c2nc4ccccc4c(=O)n2-3)CC1 [Example 18]	0.813 µg/mL (≈ 2.23 µM)	0.513 µg/mL (≈ 1.41 µM)	–	–
CN1CCN(c2cc3c(cc2F)C(=O)c2nc4cc(F)ccc4c(=O)n2-3)CC1 [Example 20]	1.05 µg/mL (≈ 2.76 µM)	0.734 µg/mL (≈ 1.92 µM)	–	–
O=C1c2ccc(Cl)cc2-n2c1nc1ncccc1c2=O [Example 22]	0.278 µg/mL (≈ 0.979 µM)	0.263 µg/mL (≈ 0.927 µM)	–	–
O=C1c2cc(I)ccc2-n2c1nc1ncccc1c2=O [Example 23]	0.00397 µg/mL (≈ 0.0106 µM)	0.00167 µg/mL (≈ 0.00445 µM)	–	–
Cc1ccc(S(=O)(=O)N/N=C2/c3ccccc3-n3c2nc2ccccc2c3=O)cc1 [Example 25]	1.84 µg/mL (≈ 4.42 µM)	1.99 µg/mL (≈ 4.78 µM)	–	–
CCOC(=O)c1ccc2c(c1)C(=O)c1nc3ccc(I)cc3c(=O)n1-2 [Example 26]	0.589 µg/mL (≈ 1.32 µM)	0.609 µg/mL (≈ 1.37 µM)	–	–
O=C1c2cc(I)ccc2-n2c1nc1c(Br)cc(Br)cc1c2=O [Example 29]	0.149 µg/mL (≈ 0.281 µM)	0.131 µg/mL (≈ 0.245 µM)	–	–
O=C1c2ccccc2-n2c1nc1nccnc1c2=O [Example 30]	0.5 µg/mL (≈ 2 µM)	0.354 µg/mL (≈ 1.42 µM)	–	–

SMILES	IC50 [1, 3]	IC50 [2, 3]	IC50 [1]	IC50 [2]
CC(C)(C)OC(=O)N1CCN(c2cc3nc4n(c(=O)c3cc2F)-c2ccc(I)cc2C4=O)CC1 [Example 31]	0.161 µg/mL (≈ 0.279 µM)	0.134 µg/mL (≈ 0.233 µM)	–	–
O=C1c2cc(I)ccc2-n2c1nc1c(O)nc(O)nc1c2=O [Example 32]	3.85 µg/mL (≈ 9.43 µM)	2.59 µg/mL (≈ 6.34 µM)	–	–
O=C1c2ccccc2-n2c1nc1c(Br)cc(Br)c(F)c1c2=O [Example 33]	0.0671 µg/mL (≈ 0.158 µM)	0.0796 µg/mL (≈ 0.188 µM)	–	–
CC1CN(c2cc3nc4n(c(=O)c3cc2F)-c2ccc(I)cc2C4=O)CCN1C(=O)OC(C)(C)C (centres unmarked) [Example 34]	0.588 µg/mL (≈ 0.996 µM)	0.601 µg/mL (≈ 1.02 µM)	–	–
CC1CN(c2cc3nc4n(c(=O)c3cc2F)-c2ccc(I)cc2C4=O)CCN1 (centres unmarked) [Example 35]	0.103 µg/mL (≈ 0.211 µM)	0.134 µg/mL (≈ 0.273 µM)	–	–
CC(C)(C)OC(=O)N/N=C1/c2ccccc2-n2c1nc1ccccc1c2=O [Example 36]	4.2 µg/mL (≈ 11.6 µM)	4.82 µg/mL (≈ 13.3 µM)	–	–
NC(=O)N/N=C1/c2ccccc2-n2c1nc1ccccc1c2=O [Example 37]	3.78 µg/mL (≈ 12.4 µM)	3.48 µg/mL (≈ 11.4 µM)	–	–
O=C1c2ccccc2-n2c1nc1c(Br)cc(Br)c(Cl)c1c2=O [Example 38]	0.242 µg/mL (≈ 0.549 µM)	0.203 µg/mL (≈ 0.461 µM)	–	–
CCCCCCCCc1ccc2c(c1)C(=O)c1nc3ccncc3c(=O)n1-2 [Example 41]	0.0123 µg/mL (≈ 0.0341 µM)	0.00766 µg/mL (≈ 0.0212 µM)	–	–
O=C1c2cc(Cl)ccc2-n2c1nc1ccc(I)cc1c2=O [Example 42]	0.0764 µg/mL (≈ 0.187 µM)	0.0632 µg/mL (≈ 0.155 µM)	–	–
O=C(N/N=C1\c2ccccc2-n2c1nc1ccccc1c2=O)c1ccncc1 [Example 43]	38.2 µg/mL (≈ 104 µM)	23 µg/mL (≈ 62.6 µM)	–	–
CCCCCCCCc1ccc2nc3n(c(=O)c2c1)-c1ccc(Cl)cc1C3=O [Example 44]	6.92 µg/mL (≈ 17.5 µM)	5.86 µg/mL (≈ 14.8 µM)	–	–
CCN(CCN(C)C)c1ccc2c(=O)n3c(nc2c1)C(=O)c1cc(Cl)ccc1-3 [Example 49]	0.0739 µg/mL (≈ 0.186 µM)	0.0747 µg/mL (≈ 0.188 µM)	–	–
O=C1c2cc(Cl)ccc2-n2c1nc1ncncc1c2=O [Example 50]	0.0442 µg/mL (≈ 0.155 µM)	0.0112 µg/mL (≈ 0.0392 µM)	–	–
O=C1/C(=c2\c3ccccc3n3c(=O)c4ccccc4nc23)Nc2ccccc21 [Example 51]	–	–	8.69 µg/mL (≈ 23.9 µM)	8.76 µg/mL (≈ 24.1 µM)
O=C1c2ccccc2-n2c1nc1ccncc1c2=O [Example 52]	0.0733 µg/mL (≈ 0.294 µM)	0.0647 µg/mL (≈ 0.26 µM)	–	–
CCOC(=O)c1nc2ccccc2c(=O)n1-c1ccccc1 [Example 53]	9.01 µg/mL (≈ 30.6 µM)	4.87 µg/mL (≈ 16.6 µM)	–	–
Cc1ncc2c(=O)n3c(nc2n1)C(=O)c1cc(I)ccc1-3 [Example 54]	0.0746 µg/mL (≈ 0.191 µM)	0.124 µg/mL (≈ 0.318 µM)	–	–
Cc1ncc2c(=O)n3c(nc2n1)C(=O)c1ccccc1-3 [Example 56]	0.216 µg/mL (≈ 0.817 µM)	0.117 µg/mL (≈ 0.443 µM)	–	–
CN(CC(=O)O)c1ccc2c(=O)n3c(nc2c1)C(=O)c1cc(Cl)ccc1-3 [Example 60]	0.0781 µg/mL (≈ 0.211 µM)	0.0679 µg/mL (≈ 0.184 µM)	–	–

SMILES	IC50 [1, 3]	IC50 [2, 3]	IC50 [1]	IC50 [2]
CN(CCOC(=O)CCC(=O)O)c1ccc2c(=O)n3c(nc2c1)C(=O)c1cc(Cl)ccc1-3 [Example 61]	0.247 µg/mL (≈ 0.542 µM)	0.187 µg/mL (≈ 0.41 µM)	–	–
COCc1ccc2c(c1)C(=O)c1nc3ccncc3c(=O)n1-2 [Example 62]	0.0313 µg/mL (≈ 0.107 µM)	0.016 µg/mL (≈ 0.0546 µM)	–	–
CCOC(=O)C(O)(C(=O)OCC)C1c2ccccc2-n2c1nc1ccccc1c2=O (centres unmarked) [Example 65]	0.259 µg/mL (≈ 0.634 µM)	0.154 µg/mL (≈ 0.377 µM)	–	–
CN1CCN(/N=C\c2ccc3c(c2)C(=O)c2nc4ccncc4c(=O)n2-3)CC1 [Example 66]	0.517 µg/mL (≈ 1.38 µM)	0.449 µg/mL (≈ 1.2 µM)	–	–
O=c1c2ccccc2nc2/c(=C/C=C/c3ccccc3)c3ccccc3n12 [Example 67]	4.44 µg/mL (≈ 12.7 µM)	4.42 µg/mL (≈ 12.7 µM)	–	–
CCCCCCC(C)c1ccc2c(c1)C(=O)c1nc3ccncc3c(=O)n1-2 (centres unmarked) [Example 71]	0.143 µg/mL (≈ 0.397 µM)	0.12 µg/mL (≈ 0.332 µM)	–	–
CCCCCCCCc1ccc2c(c1)C(=O)c1nc3cc(N(C)CCO)ccc3c(=O)n1-2 [Example 72]	7.86 µg/mL (≈ 18.1 µM)	7.46 µg/mL (≈ 17.2 µM)	–	–
COc1cccc2c(=O)n3c(nc12)/c(=C/c1ccccc1)c1cc(F)ccc13 [Example 75]	0.534 µg/mL (≈ 1.44 µM)	0.573 µg/mL (≈ 1.55 µM)	–	–
CCOC(=O)C(O)(C(=O)OCC)C1c2cc(F)ccc2-n2c1nc1c(OC)cccc1c2=O (centres unmarked) [Example 76]	0.224 µg/mL (≈ 0.49 µM)	0.16 µg/mL (≈ 0.35 µM)	–	–
O=C1c2cc(C3OCCCO3)ccc2-n2c1nc1ccncc1c2=O [Example 77]	0.22 µg/mL (≈ 0.657 µM)	0.165 µg/mL (≈ 0.493 µM)	–	–
CN(CCO)c1ccc2c(=O)n3c(nc2c1)C(=O)c1cc(OC(F)(F)F)ccc1-3 [Example 79]	0.07 µg/mL (≈ 0.173 µM)	0.0688 µg/mL (≈ 0.17 µM)	–	–
O=c1c2ccccc2nc2n1-c1ccccc1C21OCCO1 [Example 80]	7.97 µg/mL (≈ 27.3 µM)	6.9 µg/mL (≈ 23.6 µM)	–	–
CC1(C)COC(c2ccc3c(c2)C(=O)c2nc4ccncc4c(=O)n2-3)OC1 [Example 81]	0.11 µg/mL (≈ 0.303 µM)	0.0739 µg/mL (≈ 0.203 µM)	–	–
Cc1ccc2c(c1)C(=O)c1nc3ccncc3c(=O)n1-2 [Example 82]	0.0628 µg/mL (≈ 0.239 µM)	0.124 µg/mL (≈ 0.471 µM)	–	–
O=C1c2cc(C(O)(C(F)(F)F)C(F)(F)F)ccc2-n2c1nc1ccncc1c2=O [Example 84]	1.71 µg/mL (≈ 4.12 µM)	0.938 µg/mL (≈ 2.26 µM)	–	–
COCCOC(c1ccc2c(c1)C(=O)c1nc3ccncc3c(=O)n1-2)C(C)C (centres unmarked) [Example 85]	0.136 µg/mL (≈ 0.358 µM)	0.105 µg/mL (≈ 0.278 µM)	–	–
O=C(N/N=C\c1ccc2c(c1)C(=O)c1nc3ccncc3c(=O)n1-2)c1ccncc1 [Example 88]	0.49 µg/mL (≈ 1.24 µM)	0.177 µg/mL (≈ 0.448 µM)	–	–
O=C1c2cc(/C=N/N3CCCCC3)ccc2-n2c1nc1ccncc1c2=O [Example 89]	0.112 µg/mL (≈ 0.311 µM)	0.0688 µg/mL (≈ 0.191 µM)	–	–
